SMILES strings stand for the structures.

From US10195466B2, “Method for treating skin cancer using radiation therapy” (HACKENSACK UNIVERSITY MEDICAL CENTER, priority 2014, dated 2019) come the findings set out here.

In test [1] the test system is melanoma cell lines WC00046, WC00060 and WC00081. Briefly: Cell survival (cell count) after irradiation with or without mitochondrial inhibitors. Type of test: cell-based, human. Particulars: compared to untreated cells, FIG. 1B; for cell killing of melanoma cells: inhibitor combined with high dose rate 2,400 mu/min, 5 μM in medium; for survival rates: melanoma cells, doses 2 Gy, 4 Gy and 8 Gy at 2,400 mu/min and 400 mu/min. The method, then:
Three melanoma cell lines; WC00046, WC00060 and WC00081 were used in these examples, in which WC00046 was the most aggressive cell line (metastatic stage II), WC00060 was least aggressive (stage I, primary tumor site) and WC00081 was the medium aggressive (malignant melanoma primary site), purchased from Coriell Institute of Camden, N.J. The primary HEM (human epidermal melanocytes) was purchased from ScienCell Research Laboratories of Carlsbad, Calif. (#2220). Melanoma cells were grown in RPMI (Invitrogen) with 10% FBS, 1% Penicillin/Streptomycin. HEM cells were grown in Mel-M media (ScienCell Research Laboratories, Catalog number 2201) supplemented with 5 ML, Mel GS (ScienCell Research Laboratories, Catalog number 2252), 2.5 ML FBS (ScienCell Research Laboratories, Catalog number 0002) and 5 ML penicillin/Streptomycin solution (ScienCell Research Laboratories, Catalog number 0503), which is a complete medium designed for optimal growth of normal human dermal-derived melanocytes in vitro.
Two mitochondrial inhibitors Oligomycin (Sigma Aldrich # O4876) and Rotenone (Sigma Aldrich #R8875) were used. An optimal concentration of 0.5 uM were used for both melanoma cell lines and HEM added to the growth medium and removed after the irradiation. Dilutions were made in DMSO according to manufacturer's instructions.
Melanoma cell lines WC00046, WC00060 and WC00081 (purchased from Coriell Institute of Camden, N.J.) were seeded at 5×10^5 cells in T-25 culture flasks (BD-Falcon, Franklin Lakes, N.J., Catalog #356536 or equivalent) containing either RPMI media (Invitrogen, Carlsbad, Calif., Catalog #11875119 or equivalent) with 10% fetal bovine serum (FBS; ATCC Catalog #30-2020 or equivalent), 1% Penicillin/Streptomycin (GIBCO, Carlasbad, Calif., Catalog #15140 or equivalent) or RPMI media with 10% FBS, 1% Penicillin/Streptomycin, 5 μM Oligomycin (Sigma-Aldrich, St. Louis, Mo., Catalog #04876) or RPMI media with 10% FBS, 1% Penicillin/Streptomycin, 5 μM Rotenone (Sigma-Aldrich, St. Louis, Mo., Catalog #R8875). Human Epidermal Melanocytes (HEM) (ScienCell Research Laboratories, Carlsbad, Calif., Catalog #2220) were seeded at 5×10^5 cells in a T-25 culture flask (BD-Falcon, Franklin Lakes, N.J., Catalog #356536 or equivalent) containing either Mel-M media (ScienCell Research Laboratories, Carlsbad, Calif., Catalog #2201) or Mel-M media, 5 μM Oligomycin or Mel-M media, 5 μM Rotenone. Cells were allowed to settle and adhere to the T-25 culture flasks by overnight incubation in a humidified incubator at 37° C., 5% CO2. […] Cells were counted and cell survival (%) was recorded two (2) days and seven (7) days post radiation.

The test system of test [2] is Human Epidermal Melanocytes (HEM). The description is as above. The class given is cell-based. As to conditions: doses 2 Gy, 4 Gy and 8 Gy at 2,400 mu/min and 400 mu/min, compared to untreated cells, FIG. 1B. The method, then: Three melanoma cell lines; WC00046, WC00060 and WC00081 were used in these examples, in which WC00046 was the most aggressive cell line (metastatic stage II), WC00060 was least aggressive (stage I, primary tumor site) and WC00081 was the medium aggressive (malignant melanoma primary site), purchased from Coriell Institute of Camden, N.J. The primary HEM (human epidermal melanocytes) was purchased from ScienCell Research Laboratories of Carlsbad, Calif. (#2220). Melanoma cells were grown in RPMI (Invitrogen) with 10% FBS, 1% Penicillin/Streptomycin. […]
Melanoma cell lines WC00046, WC00060 and WC00081 (purchased from Coriell Institute of Camden, N.J.) were seeded at 5×10^5 cells in T-25 culture flasks (BD-Falcon, Franklin Lakes, N.J., Catalog #356536 or equivalent) containing either RPMI media (Invitrogen, Carlsbad, Calif., Catalog #11875119 or equivalent) with 10% fetal bovine serum (FBS; ATCC Catalog #30-2020 or equivalent), 1% Penicillin/Streptomycin (GIBCO, Carlasbad, Calif., Catalog #15140 or equivalent) or RPMI media with 10% FBS, 1% Penicillin/Streptomycin, 5 μM Oligomycin (Sigma-Aldrich, St. Louis, Mo., Catalog #04876) or RPMI media with 10% FBS, 1% Penicillin/Streptomycin, 5 μM Rotenone (Sigma-Aldrich, St. Louis, Mo., Catalog #R8875). […] Cells were counted and cell survival (%) was recorded two (2) days and seven (7) days post radiation.

Test [3] concerns melanoma cells. The test can be described thus: Mitotracker Red assay of mitochondrial activity in irradiated cells. The class given is cell-based, human. Particulars: irradiated cells with mitochondrial respiration blocked, versus non-irradiated control (Dose 0); FIG. 2A. The method, then: Mitotracker Red CMXRos (Invitrogen-M7512) was used for mitotracker assay. Stock solution was prepared in anhydrous DMSO, and the aliquots were stored in −30° C. Stock solution was diluted with culture media prior to the assay. Cells were treated with Mitotracker working solution (200 nM) and incubated for 15 minutes (37° C., 5% CO2). Labeling solution was removed and cells were washed with 1×PBS followed by fixing with 2% PFA (paraformaldehyde) for 30 minutes at room temperature in dark. Cells were washed with 1×PBS and mounted using DAPI and images were taken immediately.
It is well-known that melanoma cells up-regulate mitochondrial respiration to partly overcome the damage caused by radiation treatment (Rafehi, H et al., “Clonogenic assay: adherent cells.” J. Vis. Exp. 2011 Mar. 13;(49). pii: 2573. doi: 10.3791/2573). In this study, Mitotracker® Red was used to determine mitochondrial activity in irradiated melanoma cells and HEM. Mitotracker® Red is a cell permeant mitochondrial probe that diffuses through the plasma membrane of active mitochondria and is retained there even after fixation of cells. That is, mitochondrial activity is a direct measure of the amount of fluorescent Mitotracker® Red accumulated within the mitochondria.
A Mitotracker® Red CMXRos (Invitrogen, Carlsbad, Calif., Catalog #M7512 or equivalent) assay was performed according to manufacturer's instructions. […]

The test system of test [4] is melanoma cells. Briefly: MTT cell proliferation assay in irradiated cells. The class given is cell-based, human. Particulars: seven days post-irradiation, relative to irradiation alone, FIG. 2B. The method, then:
MTT assay was carried out to measure the cell proliferation in radiated cells. Cells were seeded in […] and incubated with MTT assay reagent (tetrazolium dye). MTT assay is based on the ability of metabolically active cells to reduce the yellow tetrazolium salt (MTT) by to form insoluble purple formazan crystals, which are solubilized by the addition of a detergent and quantified (i.e., color). The MTT Cell Proliferation Assay measures the cell proliferation rate and conversely, when metabolic events lead to apoptosis or necrosis, the reduction in cell viability. The number of assay steps has been minimized as much as possible to expedite sample processing. The MTT Reagent yields low background absorbance values in the absence of cells. For each cell type the linear relationship between cell number and signal produced is established, thus allowing an accurate quantification of changes in the rate of cell proliferation.
An MTT (tetrazolium dye) assay was performed to measure cell proliferation in irradiated melanoma cells and HEM. The MTT assay is based on the ability of metabolically active cells to reduce yellow tetrazolium salt (MTT) to insoluble purple formazan crystals. The formazan crystals are solubized in detergent and quantified by colorimetric analysis. […]

The test system of another test is HEM. Briefly: Colony formation (clonogenic) assay after irradiation. The class given is cell-based, human. Particulars: HEM treated with mitochondrial inhibitors and irradiated; FIG. 4B. The method, then: (§1) Radiated cells were washed with 1× phosphate buffer saline (PBS), trypsinized and harvested in corning tubes (15 ml, BD Falcon). These cells were serially diluted (1:100, 1:1000, 1:10000) and plated in Petri-dishes (Tissue culture Petri dishes, BD Falcon) with complete media and allowed to grow colonies for 7-21 days. Colonies were stained with Hematoxylin for 30 min after fixing the cells in 100% ethanol for about 20-30 min. Petridishes with stained colonies were washed in water, dried overnight and counts were recorded.
(§2) The colony formation assay, or clonogenic assay, is used to determine the ability of a cell to proliferate (i.e., maintain its reproductive ability to form a colony or clone). This assay has been widely used in radiation biology to assess the effects of ionizing radiation on cells (Sadagopan, R. et al., “Characterization and clinical evaluation of a novel IMRT quality assurance system.” Journal of Applied Clinical Medical Physics 10.2 (2009)). In this study, three (3) melanoma cell lines were used to compare the effects of different radiation dose rates on cell proliferation. Melanoma cell lines were selected based on their known resistance to radiation therapy. Human epidermal melanocytes (HEM) were used to determine the effect of ionizing radiation on normal cells.
(§3) Cells were maintained and irradiated as described in Example 1. Irradiated cells were washed with 1× phosphate buffer saline (PBS) (Sigma Aldrich, St. Louis, Mo., Catalog No. P5493, or equivalent), trypsinized and harvested in 15 mL conical tubes (BD-Falcon, Franklin Lakes, N.J., Catalog #352095 or equivalent). The cells were serially diluted (1:100, 1:1000, 1:10000) and plated in Petri-dishes (BD-Falcon, Franklin Lakes, N.J., Catalog #351007 or equivalent) with the appropriate complete media and allowed to grow colonies for 7-21 days. Colonies were stained with hematoxylin (Sigma-Aldrich, St. Louis, Mo., Catalog #H9627 or equivalent) for 30 minutes after fixing the cells in 100% ethanol (VWR, Radnor, Pa., Catalog #71006-012 or equivalent) for about 20-30 minutes. Petridishes with stained colonies were washed in water, dried overnight and colony counts were recorded.

The subject of test [5] is melanoma cells WC00046, WC00060 and WC00081. The description is as above. Type of test: cell-based, human. Particulars: FIG. 4B. The method, then: as §1, §2, §3
The mark [6] stands for this setting: WC00046, 2,400 mu/min, treated with mitochondrial inhibitors.
Setting [7] is: WC00046, WC00060 and WC00081, 2,400 mu/min, relative to irradiation alone.

Regarding `C=C(C)[C@H]1Cc2c(ccc3c2O[C@@H]2COc4cc(OC)c(OC)cc4[C@@H]2C3=O)O1` [Rotenone], the “cell killing of melanoma cells” value in test [1] is “augment the cell killing”. Also, the survival rates result in test [1] and in test [2] was “significantly lower survival rates” in each case. In the test on melanoma cells [3], the “mitochondrial activity (Mitotracker Red fluorescence)” value is “reduced below basal levels”. In addition, the figures for the “cell survival (%)” value (in the test with melanoma cells [4]; in test [5] (setting [6]); in test [5] (setting [7])) were “further reduced”, 25% and “further reduced”, respectively. Besides, in the test on HEM, the viability and proliferation entry is “retained viability and proliferation”.
As to `CC[C@H]1/C=C/C=C/C[C@@H](C)[C@H](O)[C@@](C)(O)C(=O)[C@@H](C)[C@H](O)[C@@H](C)C(=O)[C@@H](C)[C@H](O)[C@@H](C)/C=C/C(=O)O[C@@H]2[C@H](C)[C@H](CC1)O[C@]1(CC[C@H](C)[C@H](C[C@@H](C)O)O1)[C@H]2C` [Oligomycin], the “cell killing of melanoma cells” value in test [1] is reported as “augment the cell killing”. Moreover, the survival rates entry in test [1] and in test [2] was “significantly lower survival rates” in each case. Besides, the “mitochondrial activity (Mitotracker Red fluorescence)” value in the test on melanoma cells [3] was “reduced below basal levels”. The “cell survival (%)” value with melanoma cells [4] is reported as “further reduced”; in test [5] (setting [6]), 25%; in test [5] (setting [7]) it was “further reduced”. In the test on HEM, the viability and proliferation entry is “retained viability and proliferation”.
